Values joined by “and” are separate entries in the source; they are usually repeats but may differ in a detail not shown here. Equal values may be shown once.
Tested on: 817829-284-R-J1-PDC complex spheroid viability
Test: Anticancer human tumor 817829-284-R-J1-PDC patient-derived colon adenocarcinoma cell line growth inhibition [POLQ]
Details: for viability, T/C: stronger effect = lower value; active = viability on the fitted dose curve at most 10% of control; inactive = the rest
Procedure: Multicellular complex tumor spheroid response to Polymerase (POL) inhibitors (novobiocin, ART-558, RP6685) in combination with a variety of drugs and investigational agents in selected tumor cell lines
The POL inhibitors (novobiocin, ART-558, and RP6685) were evaluated both individually and in combination with standard of care and investigational anticancer small molecules within a complex spheroid model of solid tumors. . Complex spheroids include a stromal component modeled by human endothelial cells (HUVEC) and fibroblasts modeled by human mesenchymal stem cells (MSCs). The concentration ranges selected for each drug and investigational agent were based upon clinically achievable concentrations if the clinical Cmax of the agent was known.
Compounds. The drugs and investigational agents: novobiocin (NSC847541), ART-558 (NSC835418), RP-6685 (NSC848927), peposertib (NSC802822), ceralasertib (NSC780249), elimusertib (NSC800525), camonsertib (NSC841442), AZD-1390 (NSC803789), olaparib (NSC753686), talazoparib (NSC767125), rucaparib (NSC756644), sotorasib (NSC818433), MRTX-1133 (NSC836407), SN-38 (NSC673596), topotecan (NSC609699), epotoside (NSC141540), doxorubicin (NSC123127), gemcitabine (NSC613327), 5-fluorouracil (NSC19893), paclitaxel (NSC125973), vemurafenib (NSC761431), MSA-2 (NSC828583), SN-011 (NSC837082), adavosertib (NSC754352), prexasertib (NSC758257), carboplatin (NSC241240) and oxaliplatin (NSC266046), were obtained from the National Cancer Institute (NCI) Developmental Therapeutics Program Chemical Repository (21). The FDA-approved anticancer drug set is available from the Developmental Therapeutics Program at https://dtp.cancer.gov/organization/dscb/obtaining/. […] The stock solutions were prepared in dimethyl sulfoxide (DMSO, Sigma-Aldrich, St. Louis, MO, cat. D2650), except for the platinum compounds which were prepared in saline (Quality Biological, Gaithersburg, MD, cat. 114-055-101), at 800-fold the tested concentration and stored at -70 degrees C prior to their use. All drugs and investigational agents were tested over a range starting from a high concentration at or near the clinical Cmax and decreasing in half-log increments. If the clinical Cmax for an agent had not been determined, the highest concentration tested was 10 microM, except for SN-38, which was tested at a high concentration of 1 microM.
Cell Culture. All cells were maintained in an incubator at 37 degrees C and 5% CO2 with 95% humidity. The PDC lines were cultured according to standard operating procedures established by the NCI PDMR (https://pdmr.cancer.gov). Table 3 of the manuscript, lists the cell lines along with the number of the three cell types plated to form the mct-spheroids and media for tumor cell growth. After thawing, all PDC lines, except 997537-175-T-J1-PDC and 415267-285-R-J2-PDC, were cultured in Matrigel-coated flasks prepared with a working solution of 1X Ham's F-12 nutrient mix, without supplementation (Thermo Fisher Scientific, cat. 11765054), 100 U/mL penicillin-streptomycin (Thermo Fisher Scientific, cat. 15140122), and 2.5% Matrigel (Corning Inc., Corning, NY, cat. 354248) for the first three passages. The two PDC lines 997537-175-T-J1-PDC and 415267-285-R-J2-PDC were cultured on uncoated flasks. The 857933-349-R-J2-PDC line was cultured in 6C/Colon 1B media containing advanced DMEM/F-12 (Thermo Fisher Scientific, cat. 12634028), 10 mM HEPES (Thermo Fisher Scientific, cat. 15630080), 1X GlutaMAX supplement (Thermo Fisher Scientific, cat. 35050061), 0.1 mg/mL primocin (InvivoGen, San Diego, CA, cat. ant-pm-2), 10% defined fetal bovine serum, heat inactivated (HyClone Laboratories Inc., Logan, UT, cat. SH30070.03HI), 50% L-WRN conditioned media (ATCC, cat. CRL-3276), 1.25 mM N-Acetyl-L-cysteine (Sigma-Aldrich, cat. A9165), 10 mM nicotinamide (Sigma-Aldrich, cat. N0636), 1X B-27 supplement (Thermo Fisher Scientific, cat. 17504044), 1X N-2 supplement (Thermo Fisher Scientific, cat. […]
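Note: spheroids exposed to compounds for 7 days.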
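Throughout, for viability, T/C: 100% = DMSO vehicle-treated spheroids.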

Nc1ccn(C2OC(CO)C(O)C2(F)F)c(=O)n1 (stereo not drawn)
active: viability, T/C (compound 0.0316 µM) 5.66% and 4.03% and 5.85% | viability, T/C (compound 0.1 µM) 5.98% and 3.62% and 5.26% | viability, T/C (compound 0.316 µM) 6.49% and 4.28% and 5.54% | viability, T/C (compound 1 µM) 5.15% and 3.77% and 4.65% | viability, T/C (compound 3.16 µM) 4.26% and 2.95% and 4.25% | viability, T/C (compound 10 µM) 3.15% and 2.31% and 3.29%
< 31.6 nM: IC50 (curve of compound)

CCCS(=O)(=O)Nc1ccc(F)c(C(=O)c2c[nH]c3ncc(-c4ccc(Cl)cc4)cc23)c1F
7.53% and 9.53% and 19.9%: viability, T/C (compound 10 µM)
3260 nM and 2920 nM and 3800 nM: IC50 (curve of compound)
inactive: viability, T/C (compound 0.0316 µM) 89.8% and 97% and 86.7% | viability, T/C (compound 0.1 µM) 87% and 72.4% and 57% | viability, T/C (compound 0.316 µM) 66.1% and 86.6% and 80.9% | viability, T/C (compound 1 µM) 72.1% and 59.4% and 61% | viability, T/C (compound 3.16 µM) 55.4% and 56.3% and 59.4%

CC1COCCN1c1cc(C2(O)CC3CCC(C2)O3)c2cnn(-c3ccn[nH]3)c2n1 (stereo not drawn) + Nc1ccc(C#CCN(C(=O)Cc2ncc(C(F)(F)F)cc2C(F)(F)F)c2ccc(F)cc2)nn1
< 31.6 nM: IC50 (curve of first compound, second compound 0.0316 µM) | IC50 (curve of first compound, second compound 0.1 µM) | IC50 (curve of first compound, second compound 0.316 µM) | IC50 (curve of first compound, second compound 1 µM) | IC50 (curve of first compound, second compound 3.16 µM) | IC50 (curve of first compound, second compound 10 µM)
active: viability, T/C (second compound 0.0316 µM, first compound 0.1 µM) 7.07% | viability, T/C (second compound 0.0316 µM, first compound 0.316 µM) 4.65% | viability, T/C (second compound 0.0316 µM, first compound 1 µM) 3.5% | viability, T/C (second compound 0.0316 µM, first compound 3.16 µM) 3.48% | viability, T/C (second compound 0.0316 µM, first compound 10 µM) 3.16% | viability, T/C (second compound 0.1 µM, first compound 0.1 µM) 9.38% | viability, T/C (second compound 0.1 µM, first compound 0.316 µM) 4.42% | viability, T/C (second compound 0.1 µM, first compound 1 µM) 3.56% | viability, T/C (second compound 0.1 µM, first compound 3.16 µM) 2.98% | viability, T/C (second compound 0.1 µM, first compound 10 µM) 2.77% | viability, T/C (second compound 0.316 µM, first compound 0.316 µM) 4.5% | viability, T/C (second compound 0.316 µM, first compound 1 µM) 3.48% | viability, T/C (second compound 0.316 µM, first compound 3.16 µM) 3.21% | viability, T/C (second compound 0.316 µM, first compound 10 µM) 2.42% | viability, T/C (second compound 1 µM, first compound 0.316 µM) 4.41% | viability, T/C (second compound 1 µM, first compound 1 µM) 3.09% | viability, T/C (second compound 1 µM, first compound 3.16 µM) 2.69% | viability, T/C (second compound 1 µM, first compound 10 µM) 2.28% | viability, T/C (second compound 3.16 µM, first compound 0.1 µM) 7.74% | viability, T/C (second compound 3.16 µM, first compound 0.316 µM) 3.99% | viability, T/C (second compound 3.16 µM, first compound 1 µM) 2.88% | viability, T/C (second compound 3.16 µM, first compound 3.16 µM) 2.96% | viability, T/C (second compound 3.16 µM, first compound 10 µM) 2.33% | viability, T/C (second compound 10 µM, first compound 0.1 µM) 8.66% | viability, T/C (second compound 10 µM, first compound 0.316 µM) 3.65% | viability, T/C (second compound 10 µM, first compound 1 µM) 3.1% | viability, T/C (second compound 10 µM, first compound 3.16 µM) 2.74% | viability, T/C (second compound 10 µM, first compound 10 µM) 2.24%
inactive: viability, T/C (second compound 0.0316 µM, first compound 0.0316 µM) 26.3% | viability, T/C (second compound 0.1 µM, first compound 0.0316 µM) 36% | viability, T/C (second compound 0.316 µM, first compound 0.0316 µM) 25.9% | viability, T/C (second compound 0.316 µM, first compound 0.1 µM) 10.1% | viability, T/C (second compound 1 µM, first compound 0.0316 µM) 29.4% | viability, T/C (second compound 1 µM, first compound 0.1 µM) 10.3% | viability, T/C (second compound 3.16 µM, first compound 0.0316 µM) 29.5% | viability, T/C (second compound 10 µM, first compound 0.0316 µM) 22%

Cn1ncnc1[C@H]1c2n[nH]c(=O)c3cc(F)cc(c23)N[C@@H]1c1ccc(F)cc1
inactive: viability, T/C (compound 0.000316 µM) 80.8% and 91.3% and 74.5% | viability, T/C (compound 0.001 µM) 64% and 85.5% and 71.1% | viability, T/C (compound 0.00316 µM) 54.7% and 74.7% and 71.7% | viability, T/C (compound 0.01 µM) 62.7% and 56.4% and 57.5% | viability, T/C (compound 0.0316 µM) 38.1% and 61.4% and 34% | viability, T/C (compound 0.1 µM) 29.1% and 35.4% and 36.5%
11.8 nM and 37.5 nM and 14.7 nM: IC50 (curve of compound)

From PubChem BioAssay AID1963839 (Molecular Pharmacology Branch, DTP, NCI, 2024)
